Source: patent US4988687A, “Cephalosporin derivatives, and antibacterial agents” (priority 1986, dated 1991)
≈ marks a conversion by molar mass, not a printed value. Read-outs that look alike come from different tables or passages of the source.

What was measured:
[1] = tested on: Ps. aeruginosa AKR17; assay: agar plate dilution method, MIC against Ps. aeruginosa AKR17; format: cell-based; conditions: Pseudomonas aeruginosa; Ps. aeruginosa AKR17; 10^6 CFU/ml, 37° C., 16 hours; read-out: Minimum Inhibitory Concentration (MIC)
Protocol: (§1) The in vitro antibacterial activities of the compounds of the present invention against various microorganisms, were measured by the following agar plate dilution method. One platinum loopfull of each test microorganism incubated overnight in Mueller Hinton broth, was inoculated to Mueller Hinton agar (inoculum size: 10^6 CFU/ml) Such culture media containing various antibiotics in various concentrations were prepared After incubation at 37° C. for 16 hours, the minimum inhibitory concentrations (MIC: μg/ml) were measured. As comparative compounds, cefotaxime, oeftazidime and the compounds disclosed in Example 2 of Japanese Unexamined Patent Publication No. 215690/1985 e.g. sodium 7-[2-(2-aminothiazol-4-yl)-2-ethoxyiminoacetamido]-3-(1-carboxylatemethylpyridinio-4-yl)thiomethyl-3-cephem-4-carboxylate (hereinafter referred to simply as "Reference Example A") were employed.

[2] = tested on: C. freundii GN346/16; assay: agar plate dilution method, MIC against C. freundii GN346/16; format: cell-based; conditions: Citrobacter freundii, read-out: Minimum Inhibitory Concentration (MIC)
Protocol: as §1

[3] = tested on: A. calcoaceticus No. 4; assay: agar plate dilution method, MIC against A. calcoaceticus No. 4; format: cell-based; conditions: Acinetobacter calcoaceticus, read-out: Minimum Inhibitory Concentration (MIC)
Protocol: as §1

[4] = tested on: E. cloacae 963; assay: agar plate dilution method, MIC against E. cloacae 963; format: cell-based; conditions: read-out: Minimum Inhibitory Concentration (MIC)
Protocol: as §1

[5] = tested on: P. vulgaris No. 33; assay: agar plate dilution method, MIC against P. vulgaris No. 33; format: cell-based; conditions: Proteus vulgaris; P. vulgaris No. 33 (lactamase-producing strain); 10^6 CFU/ml, 37° C., 16 hours; read-out: Minimum Inhibitory Concentration (MIC)
Protocol: as §1

[6] = tested on: S. aureus JS1; assay: agar plate dilution method, MIC against S. aureus JS1; format: cell-based; conditions: Staphylococcus aureus, read-out: Minimum Inhibitory Concentration (MIC)
Protocol: as §1

[7] = tested on: M. morganii GN5407; assay: agar plate dilution method, MIC against M. morganii GN5407; format: cell-based; conditions: Morganella morganii; M. morganii GN5407 (lactamase-producing strain); 10^6 CFU/ml, 37° C., 16 hours; read-out: Minimum Inhibitory Concentration (MIC)
Protocol: as §1

[8] = tested on: S. marcescens IAM 1184; assay: agar plate dilution method, MIC against S. marcescens IAM 1184; format: cell-based; conditions: Serratia marcescens, IAM1184; S. marcescens IAM 1184; 10^6 CFU/ml, 37° C., 16 hours; read-out: Minimum Inhibitory Concentration (MIC)
Protocol: as §1

[9] = tested on: E. coli NIHJ JC2; assay: agar plate dilution method, MIC against E. coli NIHJ JC2; format: cell-based; conditions: Escherichia coli, read-out: Minimum Inhibitory Concentration (MIC)
Protocol: as §1

[10] = tested on: K. pneumoniae PCI-602; assay: agar plate dilution method, MIC against K. pneumoniae PCI-602; format: cell-based; conditions: Klebsiella pneumoniae, PCI602, 16 h, read-out: Minimum Inhibitory Concentration (MIC)
Protocol: as §1

[11] = tested on: C. freundii GN346; assay: agar plate dilution method, MIC against C. freundii GN346; format: cell-based; conditions: Citrobacter freundii; C. freundii GN346 (lactamase-producing strain); 10^6 CFU/ml, 37° C., 16 hours; read-out: Minimum Inhibitory Concentration (MIC)
Protocol: as §1

[12] = tested on: E. cloacae Nek 39; assay: agar plate dilution method, MIC against E. cloacae Nek 39; format: cell-based; conditions: Enterobacter cloacae, NEK39; E. cloacae Nek 39 (lactamase-producing strain); 10^6 CFU/ml, 37° C., 16 hours; read-out: Minimum Inhibitory Concentration (MIC)
Protocol: as §1

[13] = tested on: Ps. aeruginosa IFO3445; assay: agar plate dilution method, MIC against Ps. aeruginosa IFO3445; format: cell-based; conditions: Pseudomonas aeruginosa, IFO3445, 16 h, read-out: Minimum Inhibitory Concentration (MIC)
Protocol: as §1

[14] = tested on: S. aureus BB5703; assay: agar plate dilution method, MIC against S. aureus BB5703; format: cell-based; conditions: Staphylococcus aureus, read-out: Minimum Inhibitory Concentration (MIC)
Protocol: as §1

[15] = tested on: M. luteus ATCC9341; assay: agar plate dilution method, MIC against M. luteus ATCC9341; format: cell-based; conditions: Micrococcus luteus, read-out: Minimum Inhibitory Concentration (MIC)
Protocol: as §1

[16] = tested on: S. marcescens No. 16-2; assay: agar plate dilution method, MIC against S. marcescens No. 16-2; format: cell-based; conditions: Serratia marcescens, NO.162, 16 h, read-out: Minimum Inhibitory Concentration (MIC)
Protocol: as §1

[17] = tested on: Ps. maltophilia GN 12873; assay: agar plate dilution method, MIC against Ps. maltophilia GN 12873; format: cell-based, Pseudomonas maltophilia; conditions: Stenotrophomonas maltophilia, GN12873; Ps. maltophilia GN 12873 (lactamase-producing strain); 10^6 CFU/ml, 37° C., 16 hours; read-out: Minimum Inhibitory Concentration (MIC)
Protocol: as §1

[18] = tested on: S. aureus 209P NIHJ-JC1; assay: agar plate dilution method, MIC against S. aureus 209P NIHJ-JC1; format: cell-based; conditions: Staphylococcus aureus, read-out: Minimum Inhibitory Concentration (MIC)
Protocol: as §1

[19] = tested on: E. coli GN5482; assay: agar plate dilution method, MIC against E. coli GN5482; format: cell-based; conditions: Escherichia coli; E. coli GN5482 (lactamase-producing strain); 10^6 CFU/ml, 37° C., 16 hours; read-out: Minimum Inhibitory Concentration (MIC)
Protocol: as §1

[20] = tested on: K. oxytoca GN10650; assay: agar plate dilution method, MIC against K. oxytoca GN10650; format: cell-based; conditions: Klebsiella oxytoca, read-out: Minimum Inhibitory Concentration (MIC)
Protocol: as §1

[21] = tested on: P. vulgaris HX-19; assay: agar plate dilution method, MIC against P. vulgaris HX-19; format: cell-based; conditions: Proteus vulgaris, read-out: Minimum Inhibitory Concentration (MIC)
Protocol: as §1

[22] = tested on: Ps. aeruginosa AK 109; assay: agar plate dilution method, MIC against Ps. aeruginosa AK 109; format: cell-based; conditions: Pseudomonas aeruginosa, AK109, 16 h, read-out: Minimum Inhibitory Concentration (MIC)
Protocol: as §1

[23] = tested on: E. coli CSH(RE45); assay: agar plate dilution method, MIC against E. coli CSH(RE45); format: cell-based; conditions: Escherichia coli, 16 h, read-out: Minimum Inhibitory Concentration (MIC)
Protocol: as §1

[24] = tested on: S. epidermidis IAM12012; assay: agar plate dilution method, MIC against S. epidermidis IAM12012; format: cell-based; conditions: Staphylococcus epidermidis, read-out: Minimum Inhibitory Concentration (MIC)
Protocol: as §1

[25] = tested on: E. coli CSH2 (RK1); assay: agar plate dilution method, MIC against E. coli CSH2 (RK1); format: cell-based; conditions: Escherichia coli, 16 h, read-out: Minimum Inhibitory Concentration (MIC)
Protocol: as §1

[26] = tested on: K. pneumoniae No. 42; assay: agar plate dilution method, MIC against K. pneumoniae No. 42; format: cell-based; conditions: Klebsiella pneumoniae; K. pneumoniae No. 42 (lactamase-producing strain); 10^6 CFU/ml, 37° C., 16 hours; read-out: Minimum Inhibitory Concentration (MIC)
Protocol: as §1

[27] = tested on: Ps. cepacia 23; assay: agar plate dilution method, MIC against Ps. cepacia 23; format: cell-based, Pseudomonas cepacia; conditions: read-out: Minimum Inhibitory Concentration (MIC)
Protocol: as §1

Row | Structure (SMILES) | MIC [1] [µg/mL] | MIC [5] [µg/mL] | MIC [7] [µg/mL] | MIC [8] [µg/mL] | MIC [10] [µg/mL] | MIC [11] [µg/mL] | MIC [12] [µg/mL] | MIC [13] [µg/mL] | MIC [16] [µg/mL] | MIC [17] [µg/mL] | MIC [19] [µg/mL] | MIC [22] [µg/mL] | MIC [23] [µg/mL] | MIC [25] [µg/mL] | MIC [26] [µg/mL] | further results
1 | Nc1nc(/C(=N/OC(C(=O)O)c2ccccc2)C(=O)NC2C(=O)N3C(C(=O)[O-])=C(CSc4cc[n+](CC(=O)O)cc4)CSC23)cs1 (stereo not drawn) [Example 3, disodium 7-[2-(2-aminothiazol-4-yl)-2-(α-carboxylatebenzyloxyimino)acetamide]-3-(1-caboxylatemethylpyridinio-4-yl)thiomethyl-3-cephem-4-carboxylate (syn-isomer)] | > 100 | 0.1 | 0.78 | 0.39 | < 0.006 | 100 | 6.25 | 3.12 | 6.25 | > 100 | 0.78 | 6.25 | 0.78 | 0.78 | 1.56 | MIC ([2]; GN346, 16 h): 1.56 µg/mL; MIC ([3]; A. calcoaceticus No. 4, 10^6 CFU/ml, 37° C., 16 hours): 50 µg/mL; MIC ([4]; Enterobacter cloacae, 963, 16 h): 1.56 µg/mL; MIC ([6]; S. aureus JS1 (methicilline resistant; lactamase-producing strain), 10^6 CFU/ml, 37° C., 16 hours): 50 µg/mL; MIC ([9]; NIHJJC2, 16 h): 1.56 µg/mL; MIC ([14]; S. aureus BB5703, 10^6 CFU/ml, 37° C., 16 hours): 25 µg/mL; MIC ([15]; ATCC9341, 16 h): 3.12 µg/mL; MIC ([18]; 16 h): 12.5 µg/mL; MIC ([20]; K. oxytoca GN10650 (lactamase-producing strain), 10^6 CFU/ml, 37° C., 16 hours): 0.78 µg/mL; MIC ([21]; HX19, P. vulgaris HX-19, 10^6 CFU/ml, 37° C., 16 hours): 0.0125 µg/mL; MIC ([24]; IAM12012, 16 h): 6.25 µg/mL; MIC ([27]; Burkholderia cepacia, 23, 16 h): 3.12 µg/mL
2 | Nc1nc(C(=NOCc2ccc(O)c(O)c2)C(=O)NC2C(=O)N3C(C(=O)[O-])=C(CSc4cc[n+](CC(=O)O)cc4)CSC23)cs1 (stereo not drawn) [Example 4, 7-[2-(2-aminothiazol-4-yl)-2-(3,4-dihydroxybenzyloxyimino)acetamido]-3-(1-carboxymethylpyridinio-4-yl)thiomethyl-3-cephem-4-carboxylate (syn-isomer)] | > 100 | 0.2 (≈ 0.297 µM) | 0.1 (≈ 0.149 µM) | 0.1 (≈ 0.149 µM) | < 0.006 | 6.25 (≈ 9.29 µM) | 0.78 (≈ 1.16 µM) | 3.12 (≈ 4.64 µM) | 6.25 (≈ 9.29 µM) | > 100 | 0.39 (≈ 0.58 µM) | 1.56 (≈ 2.32 µM) | 0.025 (≈ 0.0372 µM) | 0.05 (≈ 0.0743 µM) | 0.2 (≈ 0.297 µM) | MIC ([2]; C. freundii GN346/16, 10^6 CFU/ml, 37° C., 16 hours): 0.2 µg/mL (≈ 0.297 µM); MIC ([3]; NO.4, 16 h): 1.56 µg/mL (≈ 2.32 µM); MIC ([4]; Enterobacter cloacae, E. cloacae 963, 10^6 CFU/ml, 37° C., 16 hours): 0.1 µg/mL (≈ 0.149 µM); MIC ([6]; JS1, 16 h): 6.25 µg/mL (≈ 9.29 µM); MIC ([9]; NIHJJC2, E. coli NIHJ JC2, 10^6 CFU/ml, 37° C., 16 hours): 0.05 µg/mL (≈ 0.0743 µM); MIC ([14]; BB5703, 16 h): 3.12 µg/mL (≈ 4.64 µM); MIC ([15]; M. luteus ATCC9341, 10^6 CFU/ml, 37° C., 16 hours): 0.39 µg/mL (≈ 0.58 µM); MIC ([18]; S. aureus 209P NIHJ-JC1, 10^6 CFU/ml, Mueller Hinton agar, 37° C., 16 hours): 0.39 µg/mL (≈ 0.58 µM); MIC ([20]; GN10650, 16 h): 0.78 µg/mL (≈ 1.16 µM); MIC ([21]; HX19, 16 h): 0.025 µg/mL (≈ 0.0372 µM); MIC ([24]; S. epidermidis IAM12012, 10^6 CFU/ml, 37° C., 16 hours): 0.78 µg/mL (≈ 1.16 µM); MIC ([27]; Burkholderia cepacia, Ps. cepacia 23, 10^6 CFU/ml, 37° C., 16 hours): 0.39 µg/mL (≈ 0.58 µM)
